Measured values from paper PMC5444695, “CM363, a novel naphthoquinone derivative which acts as multikinase modulator and overcomes imatinib resistance in chronic myelogenous leukemia” (Oncotarget, 2016).
Like-named read-outs stand apart in the source and are kept apart here.

Tests used:
Assay type in all cases: cell-based, human
[1] = Live-cell imaging (IncuCyte HD) of proliferation and cytotoxicity, K562 cells; conditions: human, K562 cells; K562, continuous exposure over 4-day period, area under curve; read-out: EC50AUC, cytotoxic effect
Method: (§1) Kinetic measurements of cell proliferation and cytotoxicity were carried out by using the IncuCyte^TM HD real time imaging system (Essen BioScience, Hertfordshire, United Kingdom). After seeding in a polylysine-coated 96 well-plates, K562 cells were treated with different concentrations of compound. This IncuCyte™ microscope permits the acquisition of automated phase contrast images. Individual images are processed by an imbedded contrast-based confluence algorithm, which compute monolayer confluence for each image and at each time point. Multiple images are collected per well and averaged to provide a representative statistical measure of confluence.

K562 cells = test: as above; conditions: Homo sapiens
Method: as §1

K562-R cells = test: MTT cell viability assay, IM-resistant K562-R cells; conditions: 72 h, MTT (Fig 10D)
Method: All cell lines were purchased from the American Type Culture Collection (ATCC). The cell lines were growth at 37°C under 5% CO2 under humidified atmosphere. […] The cell lines L1210 (mouse lymphocytic leukemia cells), Raw (mouse macrophage), HeLa (human epithelial cervix cancer), U-2 OS (human osteosarcoma), MG63 (human osteosarcoma) and T47D (human breast cancer adenocarcinoma) were maintained in DMEM. HEK293 cells stably expressing the GH receptor (HEKGHR) were maintained in DMEM-F12 medium. The human breast cancer cell line SKBR3 was maintained in McCoy’s 5A medium. Cell culture medium was supplemented with 10% FBS, L-glutamine (2 mM) and PEST. In addition, the cell culture medium for T47D was supplemented with 1 mM NaPyr and 10 mM HEPES. Human peripheral blood mononuclear cells (PBMC) were isolated from heparin-anticoagulated blood of healthy volunteers by centrifugation with Ficoll-Paque Plus (Amersham Biosciences).
The mitochondrial metabolization of the tetrazolium salt 3-(4,5-methyltiazol-2yl-)-2,5diphenyl-tetrazolium bromide] (MTT) (Applichen, Germany) was used as indicator of cell viability. Optical density was measured at 595 nm with the iMark Microplate Reader (BioRad, CA, USA).

Question: For `N#Cc1ccc(C2C3=C(CCCC3=O)OC3=C2C(=O)c2ccccc2C3=O)cc1` (centres unmarked) [CM363, 4-(1,6,11-trioxo-2,3,4,6,11,12-hexahydro-1H-benzo[b]xanthen-12-yl)benzonitrile], which EC50 at 4 days [1] is on record?
Answer: 1100 ± 400 nM

Question: What about the IC50 (K562 cells; 96 h, IM sensitive K562, continuous exposure over 4-day period, area under curve, read-out: IC50AUC, cytostatic effect on cell growth) of the same compound?
Answer: 600 ± 300 nM

Question: And the IC50 (K562 cells; K562, 2 h transient exposure, then additional 72 h without compound, read-out: IC50AUC, cytostatic effect after transient exposure)?
Answer: 1900 ± 500 nM

Question: And the “lowest concentration at which inhibition was detected” value (K562-R cells)?
Answer: 0.3 µM

Question: What about the IC50 (K562-R cells; Homo sapiens, K-562R) of the same compound?
Answer: ~600 nM
